12 compounds from PubChem BioAssay (NCI) can be followed below.

Some test systems named below: HT29 colon; SK-MEL-5 melanoma; OVCAR-5 ovarian; A498 renal; OVCAR-4 ovarian; PC-3 prostate; UACC-62 melanoma; HOP-92 NSCLC; SK-MEL-28 melanoma; DU-145 prostate; SNB-19 CNS; NCI-H226 lung; 786-0 renal; EKVX NSCLC; RXF 393 renal; MDA-N; HS 578T breast; NCI/ADR-RES ovarian.
Holding throughout (assay): inhibition of tumour cell growth, NCI panel, 48 h

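A five-concentration, 48-hour dose response in 96-well plates underlies each endpoint, interpolated linearly between surrounding concentrations. GI50 is the concentration that inhibits growth by half. TGI: concentration producing complete growth inhibition.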 Some results are limits rather than exact numbers.

For the compound `CN1CCCC2C(c3ccccc3)C(C3=NCCCC3)C(c3ccccc3)CC21` (stereo unspecified), the TGI was 67.6 µM with HT29 colon; 31.7 µM in the experiment with SK-MEL-5 melanoma; above 100 µM with OVCAR-5 ovarian; above 100 µM in the experiment on A498 renal; above 100 µM in the experiment with OVCAR-4 ovarian; above 100 µM with PC-3 prostate. The TGI is 32.4 µM with UACC-62 melanoma; above 100 µM in the experiment with HOP-92 NSCLC; 36.2 µM with SK-MEL-28 melanoma; above 100 µM in the experiment with DU-145 prostate; above 100 µM in the experiment on SNB-19 CNS; above 100 µM in the experiment with NCI-H226 lung. The TGI in the experiment with 786-0 renal was above 100 µM; with EKVX NSCLC it was above 100 µM; in the experiment on RXF 393 renal, above 100 µM; in the experiment on MDA-N, 41.4 µM; in the experiment on HS 578T breast, 96.7 µM; in the experiment on NCI/ADR-RES ovarian it was above 100 µM.
With `CC1=CC[C@H](C[C@H](C#CCCCC2OCCO2)O[Si](C(C)C)(C(C)C)C(C)C)C(=O)CC1`, the TGI in the experiment on HT29 colon, in the experiment on SK-MEL-5 melanoma, in the experiment on OVCAR-5 ovarian, in the experiment on A498 renal, with OVCAR-4 ovarian and with PC-3 prostate was above 100 µM each time. The TGI in the experiment on UACC-62 melanoma, in the experiment on HOP-92 NSCLC, in the experiment with SK-MEL-28 melanoma, in the experiment with DU-145 prostate, in the experiment on SNB-19 CNS and in the experiment on NCI-H226 lung was above 100 µM in each case. Further, the TGI in the experiment on 786-0 renal, in the experiment with EKVX NSCLC, in the experiment with RXF 393 renal, with MDA-N, in the experiment with HS 578T breast and with NCI/ADR-RES ovarian was above 100 µM each time.
`CCCN(CCc1ccc(-c2ccccc2)cc1)CCc1ccc2n[nH]nc2c1`: the TGI in the experiment with HT29 colon turned out to be 23.6 µM; in the experiment on SK-MEL-5 melanoma it was 15.8 µM; in the experiment on OVCAR-5 ovarian it was 33.6 µM; in the experiment with A498 renal, 36.2 µM; in the experiment on OVCAR-4 ovarian, 33.3 µM; in the experiment on PC-3 prostate, 22.1 µM. The TGI worked out at 24 µM in the experiment with UACC-62 melanoma; 15.2 µM in the experiment on HOP-92 NSCLC; 13.6 µM in the experiment on SK-MEL-28 melanoma; 23.9 µM with DU-145 prostate; 26.8 µM in the experiment with SNB-19 CNS; 36.7 µM in the experiment with NCI-H226 lung. The TGI in the experiment on 786-0 renal came out at 24.9 µM; in the experiment with EKVX NSCLC, 27.5 µM; with RXF 393 renal it was 33.1 µM; with MDA-N, 19.1 µM; with HS 578T breast it was 51.8 µM; in the experiment on NCI/ADR-RES ovarian, 47 µM.
For the compound `Cn1c(-c2cccs2)cc(-c2cccs2)c1-c1cccs1`, the TGI in the experiment on HT29 colon, in the experiment on SK-MEL-5 melanoma, with OVCAR-5 ovarian, with A498 renal, in the experiment with OVCAR-4 ovarian and with PC-3 prostate was above 100 µM each time. Besides, the TGI in the experiment with UACC-62 melanoma, in the experiment with HOP-92 NSCLC, in the experiment on SK-MEL-28 melanoma, in the experiment with DU-145 prostate, with SNB-19 CNS and in the experiment with NCI-H226 lung was above 100 µM throughout. The TGI with 786-0 renal, in the experiment on EKVX NSCLC, in the experiment on RXF 393 renal, in the experiment on MDA-N, in the experiment with HS 578T breast and in the experiment on NCI/ADR-RES ovarian was above 100 µM throughout.
On to `Nc1cc(Cl)cc2cc(Cl)cnc12`, for which the TGI in the experiment with HT29 colon, with SK-MEL-5 melanoma, in the experiment on OVCAR-5 ovarian, in the experiment with A498 renal, in the experiment on OVCAR-4 ovarian and in the experiment on PC-3 prostate was above 100 µM throughout. Further, the TGI with UACC-62 melanoma was above 100 µM; with HOP-92 NSCLC it was 99.3 µM; with SK-MEL-28 melanoma it was above 100 µM; in the experiment with DU-145 prostate, above 100 µM; in the experiment with SNB-19 CNS, above 100 µM; in the experiment with NCI-H226 lung, above 100 µM. The TGI with 786-0 renal, with EKVX NSCLC, with RXF 393 renal, in the experiment on MDA-N, with HS 578T breast and with NCI/ADR-RES ovarian was above 100 µM in each case.
With `CCOC(=O)CC[C@H](N)C(=O)N[C@@H](Cc1ccc(N(CCCl)CCCl)cc1)C(=O)OCC`, the TGI came out at 4.19 µM in the experiment with HT29 colon; 3.13 µM in the experiment with SK-MEL-5 melanoma; 6.78 µM with OVCAR-5 ovarian; 42 µM with A498 renal; 1.41 µM with OVCAR-4 ovarian; 7.46 µM with PC-3 prostate. For the same compound, the TGI in the experiment with UACC-62 melanoma stood at 1.84 µM; with HOP-92 NSCLC, 1.62 µM; with SK-MEL-28 melanoma it was 2.38 µM; in the experiment on DU-145 prostate, 5.56 µM; with SNB-19 CNS, 18.1 µM; with NCI-H226 lung, 28.8 µM. Besides, the TGI was found to be 2.51 µM with 786-0 renal; 6.11 µM in the experiment with EKVX NSCLC; 2.14 µM in the experiment with RXF 393 renal; 2.57 µM in the experiment with MDA-N; 4.92 µM in the experiment on HS 578T breast; 21.1 µM in the experiment on NCI/ADR-RES ovarian. For the same compound, in the experiment on NCI/ADR-RES ovarian, the GI50 was 3.7 µM.
With `O=C1c2ccccc2-c2nnc(-c3ccc([N+](=O)[O-])cc3)cc21`, the TGI with HT29 colon, with SK-MEL-5 melanoma, with OVCAR-5 ovarian, in the experiment on A498 renal, in the experiment with OVCAR-4 ovarian and in the experiment with PC-3 prostate was above 10 µM in each case. Moreover, the TGI in the experiment with UACC-62 melanoma, with HOP-92 NSCLC, in the experiment on SK-MEL-28 melanoma, in the experiment on DU-145 prostate, in the experiment on SNB-19 CNS and in the experiment on NCI-H226 lung was above 10 µM throughout. Further, the TGI in the experiment on 786-0 renal, in the experiment with EKVX NSCLC, in the experiment on RXF 393 renal, in the experiment on MDA-N, in the experiment on HS 578T breast and with NCI/ADR-RES ovarian was above 10 µM each time.
`COc1cc(C(=O)NNC(=O)c2cc(Br)ccc2NC(=O)c2cccs2)cc(OC)c1OC`: the TGI in the experiment on HT29 colon is 41.1 µM; in the experiment on SK-MEL-5 melanoma it was 26.7 µM; in the experiment with OVCAR-5 ovarian, 45.3 µM; in the experiment on A498 renal, 55 µM; with OVCAR-4 ovarian, 51.4 µM; in the experiment with PC-3 prostate it was above 100 µM. In addition, the TGI in the experiment with UACC-62 melanoma is 34.1 µM; in the experiment with HOP-92 NSCLC, 46.9 µM; with DU-145 prostate, above 100 µM; in the experiment with SNB-19 CNS it was 74.3 µM; in the experiment with NCI-H226 lung, 36.5 µM; with 786-0 renal it was 45.4 µM. Besides, the TGI in the experiment with EKVX NSCLC amounted to 27 µM; in the experiment on RXF 393 renal, 29.1 µM; in the experiment on MDA-N, 74.9 µM; with HS 578T breast it was 62.1 µM; in the experiment with NCI/ADR-RES ovarian, 62 µM.
Regarding `CC12Nc3c(Cl)cc(Cl)cc3N1C(=O)c1ccccc12` (stereo unspecified), the TGI was above 100 µM in the experiment with HT29 colon; above 100 µM in the experiment on SK-MEL-5 melanoma; above 100 µM with OVCAR-5 ovarian; 99.9 µM in the experiment on A498 renal; above 100 µM in the experiment with OVCAR-4 ovarian; above 100 µM with PC-3 prostate. For the same compound, the TGI with UACC-62 melanoma was above 100 µM; with HOP-92 NSCLC it was 82.1 µM; with SK-MEL-28 melanoma it was above 100 µM; in the experiment with DU-145 prostate it was above 100 µM; with NCI-H226 lung, above 100 µM; with 786-0 renal it was above 100 µM. Also, the TGI in the experiment with EKVX NSCLC, with RXF 393 renal, in the experiment with MDA-N, with HS 578T breast and in the experiment on NCI/ADR-RES ovarian was above 100 µM each time.
As for `CN1CCC23c4c5ccc(Oc6nnnn6-c6ccccc6)c4OC2c2[nH]c4ccccc4c2CC3(O)C1C5` (stereo unspecified), the TGI in the experiment on HT29 colon was found to be 5.3 µM; with OVCAR-5 ovarian it was 32.6 µM; in the experiment on A498 renal, 6.3 µM; with OVCAR-4 ovarian, 7.53 µM; in the experiment on PC-3 prostate it was 15 µM; in the experiment on UACC-62 melanoma, 3.52 µM. Besides, the TGI in the experiment on HOP-92 NSCLC was determined as 7.71 µM; with SK-MEL-28 melanoma, 4.73 µM; in the experiment on DU-145 prostate, 19.6 µM; in the experiment on SNB-19 CNS, 22.4 µM; with NCI-H226 lung, 27.6 µM; in the experiment with 786-0 renal it was 3.33 µM. The TGI was found to be 24.2 µM in the experiment with EKVX NSCLC; 5.67 µM in the experiment with RXF 393 renal; 3.26 µM in the experiment with MDA-N; 33.9 µM in the experiment on HS 578T breast; 19.7 µM in the experiment with NCI/ADR-RES ovarian.
`COc1ccc(CC2Cc3ccccc3CCN2)cc1OC` (stereo unspecified): the TGI in the experiment on HT29 colon, in the experiment on OVCAR-5 ovarian, with A498 renal, in the experiment on OVCAR-4 ovarian, in the experiment with PC-3 prostate and with UACC-62 melanoma was above 50 µM in each case. In addition, the TGI in the experiment on HOP-92 NSCLC, with SK-MEL-28 melanoma, in the experiment on DU-145 prostate, in the experiment on SNB-19 CNS, in the experiment with NCI-H226 lung and in the experiment on 786-0 renal was above 50 µM throughout. Besides, the TGI in the experiment on EKVX NSCLC, in the experiment with RXF 393 renal, in the experiment on MDA-N, in the experiment with HS 578T breast and in the experiment on NCI/ADR-RES ovarian was above 50 µM in each case.
`CC(C)CCCC(C)[C@H]1CC[C@H]2n3c(nnc3-c3ccccc3)CCC[C@]12C` (stereo partly specified): the TGI came out at 60.5 µM with HT29 colon; 25.1 µM in the experiment on SK-MEL-5 melanoma; 31.8 µM in the experiment on A498 renal; 32.5 µM in the experiment on OVCAR-4 ovarian; 44.9 µM with PC-3 prostate; 27.3 µM in the experiment on UACC-62 melanoma. Besides, the TGI in the experiment with HOP-92 NSCLC stood at 37 µM; in the experiment on SK-MEL-28 melanoma it was 37.1 µM; with DU-145 prostate, 83 µM; in the experiment with SNB-19 CNS it was 28.2 µM; in the experiment on NCI-H226 lung, 37.5 µM; with 786-0 renal it was 34.8 µM. Also, the TGI with RXF 393 renal is 27 µM; with MDA-N, 31 µM; with HS 578T breast it was 43.3 µM; in the experiment with NCI/ADR-RES ovarian it was 24 µM.
